In the supplement of paper PMC9663587:

What was measured:
[1] = compound: CC(=O)c1c(C)c2cnc(Nc3ccc(N4CCN(CCOCCOCCOCCNC(=O)COc5cccc6c5C(=O)N(C5CCC(=O)NC5=O)C6=O)CC4)cn3)nc2n(C2CCCC2)c1=O [BSJ-03-123]; assay: increase in dead-cell fraction, 72 h; higher = more death;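 note: breast cancer cell lines in 384-well plates, stained with Hoechst plus LIVE/DEAD far red dye and imaged, cells above an LDR intensity threshold counted dead, Hoechst-negative corpses included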
[2] = compound: CC(=O)c1c(C)c2cnc(Nc3ccc(N4CCNCC4)cn3)nc2n(C2CCCC2)c1=O; assay: as above
[3] = compound: CCN1CCN(Cc2ccc(Nc3ncc(F)c(-c4cc(F)c5nc(C)n(C(C)C)c5c4)n3)nc2)CC1; assay: as above
[4] = compound: CCOc1cc2ncc(C#N)c(Nc3ccc(OCc4ccccn4)c(Cl)c3)c2cc1NC(=O)/C=C/CN(C)C [Neratinib/HKI272]; assay: as above
[5] = compound: CCc1cnn2c(NCc3ccc[n+]([O-])c3)cc(N3CCCC[C@H]3CCO)nc12; assay: as above
[6] = compound: CN(C)C(=O)c1cc2cnc(Nc3ccc(N4CCNCC4)cn3)nc2n1C1CCCC1 [LEE011/Ribociclib]; assay: as above
[7] = compound: T1, CN(C)C/C=C/C(=O)Nc1ccc(C(=O)Nc2cccc(Nc3ncc(Cl)c(-c4c[nH]c5ccccc45)n3)c2)cc1 [THZ1]; assay: as above
[8] = compound: T2, CN1CC[C@H](c2c(O)cc(O)c3c(=O)cc(-c4ccccc4Cl)oc23)[C@H](O)C1 [Flavopiridol]; assay: as above
[9] = compound: CC(=O)c1c(C)c2cnc(Nc3ccc(N4CCNCC4)cn3)nc2n(C2CCCC2)c1=O; assay: GR value, 72 h; higher = faster growth (1 = untreated, <0 = killing);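 note: breast cancer and non-malignant breast epithelial lines, nine half-log doses, viable cells counted by Hoechst and LIVE/DEAD dye imaging versus time-zero plates and DMSO controls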
[10] = compound: CN(C)C/C=C/C(=O)Nc1ccc(C(=O)N2CCC[C@@H](Nc3ncc(Cl)c(-c4c[nH]c5ccccc45)n3)C2)cc1 [THZ531]; assay: as above
[11] = compound: T1, THZ1; assay: as above
[12] = compound: T2, Flavopiridol; assay: as above

For SUM44PE, the “increase in dead-cell fraction” value ([1]; 0.001 µM) was 0.0021, the “increase in dead-cell fraction” value ([1]; 0.003162 µM) was 0.0071 and the “increase in dead-cell fraction” value ([1]; 0.01 µM) was 0.0014. For the same cell line, the “increase in dead-cell fraction” value ([1]; 0.03162 µM) was 0.0121, the “increase in dead-cell fraction” value ([1]; 0.1 µM) was 0.0265 and the “increase in dead-cell fraction” value ([1]; 0.3162 µM) was 0.0126. For the same cell line, the “increase in dead-cell fraction” value ([1]; 1 µM) was 0.0666, the “increase in dead-cell fraction” value ([1]; 3.162 µM) was 0.115 and the “increase in dead-cell fraction” value ([2]; 0.0003162 µM) was -0.0301. The “increase in dead-cell fraction” value ([2]; 0.001 µM) was 0.0185, the “increase in dead-cell fraction” value ([2]; 0.003162 µM) was 0.0057 and the “increase in dead-cell fraction” value ([2]; 0.01 µM) was -0.0159. The “increase in dead-cell fraction” value ([2]; 0.03162 µM) was 0.0328, the “increase in dead-cell fraction” value ([2]; 0.1 µM) was 0.0351 and the “increase in dead-cell fraction” value ([2]; 0.3162 µM) was 0.0647. The “increase in dead-cell fraction” value ([2]; 1 µM) was -0.0062, the “increase in dead-cell fraction” value ([2]; 3.162 µM) was 0.0016 and the “increase in dead-cell fraction” value ([3]; 0.001 µM) was 0.0036. For the same cell line, the “increase in dead-cell fraction” value ([3]; 0.003162 µM) was -0.0095, the “increase in dead-cell fraction” value ([3]; 0.01 µM) was 0.0221 and the “increase in dead-cell fraction” value ([3]; 0.03162 µM) was 0.0221. For the same cell line, the “increase in dead-cell fraction” value ([3]; 0.1 µM) was -0.017, the “increase in dead-cell fraction” value ([3]; 0.3162 µM) was 0.0843 and the “increase in dead-cell fraction” value ([3]; 1 µM) was 0.0751. For the same cell line, the “increase in dead-cell fraction” value ([3]; 3.162 µM) was 0.0328, the “increase in dead-cell fraction” value ([3]; 10 µM) was 0.697 and the “increase in dead-cell fraction” value ([4]; 0.0003162 µM) was -0.0158. For the same cell line, the “increase in dead-cell fraction” value ([4]; 0.001 µM) was -0.0227, the “increase in dead-cell fraction” value ([4]; 0.003162 µM) was -0.0156 and the “increase in dead-cell fraction” value ([4]; 0.01 µM) was 0.029. For the same cell line, the “increase in dead-cell fraction” value ([4]; 0.03162 µM) was 0.0991, the “increase in dead-cell fraction” value ([4]; 0.1 µM) was 0.118 and the “increase in dead-cell fraction” value ([4]; 0.3162 µM) was 0.137. The “increase in dead-cell fraction” value ([4]; 1 µM) was 0.22, the “increase in dead-cell fraction” value ([4]; 3.162 µM) was 0.358 and the “increase in dead-cell fraction” value ([5]; 0.0001 µM) was 0.0041. The “increase in dead-cell fraction” value ([5]; 0.0003162 µM) was -0.0148, the “increase in dead-cell fraction” value ([5]; 0.001 µM) was 0.0007 and the “increase in dead-cell fraction” value ([5]; 0.003162 µM) was -0.0141. For the same cell line, the “increase in dead-cell fraction” value ([5]; 0.01 µM) was 0.102, the “increase in dead-cell fraction” value ([5]; 0.03162 µM) was 0.894 and the “increase in dead-cell fraction” value ([6]; 0.001 µM) was 0.0007. The “increase in dead-cell fraction” value ([6]; 0.003162 µM) was -0.0447, the “increase in dead-cell fraction” value ([6]; 0.01 µM) was 0.0327 and the “increase in dead-cell fraction” value ([6]; 0.03162 µM) was -0.0402. The “increase in dead-cell fraction” value ([6]; 0.1 µM) was 0.0001, the “increase in dead-cell fraction” value ([6]; 0.3162 µM) was -0.0342 and the “increase in dead-cell fraction” value ([6]; 1 µM) was 0.0417. The “increase in dead-cell fraction” value ([6]; 3.162 µM) was -0.0186, the “increase in dead-cell fraction” value ([6]; 10 µM) was -0.0286 and the “increase in dead-cell fraction” value ([7]; 0.0001 µM) was 0.0181. For the same cell line, the “increase in dead-cell fraction” value ([7]; 0.0003162 µM) was -0.0186, the “increase in dead-cell fraction” value ([7]; 0.001 µM) was 0.0262 and the “increase in dead-cell fraction” value ([7]; 0.003162 µM) was -0.0493. For the same cell line, the “increase in dead-cell fraction” value ([7]; 0.01 µM) was 0.0625, the “increase in dead-cell fraction” value ([7]; 1 µM) was 0.0767 and the “increase in dead-cell fraction” value ([8]; 0.0001 µM) was -0.0156. The “increase in dead-cell fraction” value ([8]; 0.0003162 µM) was -0.0093, the “increase in dead-cell fraction” value ([8]; 0.001 µM) was -0.0478 and the “increase in dead-cell fraction” value ([8]; 0.003162 µM) was -0.0522. The “increase in dead-cell fraction” value ([8]; 0.01 µM) was 0.0491, the “increase in dead-cell fraction” value ([8]; 0.03162 µM) was 0.0151 and the “increase in dead-cell fraction” value ([8]; 0.1 µM) was 0.263. For the same cell line, the “increase in dead-cell fraction” value ([8]; 0.3162 µM) was 0.457, the GR value ([9]; 0.0003162 µM) was 1.09 GR and the GR value ([9]; 0.001 µM) was 0.993 GR. For the same cell line, the GR value ([9]; 0.003162 µM) was 1.03 GR, the GR value ([9]; 0.01 µM) was 1.04 GR and the GR value ([9]; 0.03162 µM) was 0.784 GR. The GR value ([9]; 0.1 µM) was 0.588 GR, the GR value ([9]; 0.3162 µM) was 0.461 GR and the GR value ([9]; 1 µM) was 0.514 GR. The GR value ([9]; 3.162 µM) was 0.397 GR, the GR value ([10]; 0.0001 µM) was 1.05 GR and the GR value ([10]; 0.0003162 µM) was 0.994 GR. For the same cell line, the GR value ([10]; 0.001 µM) was 0.799 GR, the GR value ([10]; 0.003162 µM) was 1.04 GR and the GR value ([10]; 0.01 µM) was 0.941 GR. The GR value ([10]; 0.03162 µM) was 0.783 GR, the GR value ([10]; 0.1 µM) was -0.203 GR and the GR value ([11]; 0.0001 µM) was 1.02 GR. It also gave a GR value ([11]; 0.0003162 µM) of 0.977 GR, a GR value ([11]; 0.001 µM) of 0.784 GR and a GR value ([11]; 0.003162 µM) of 0.888 GR. It also gave a GR value ([11]; 0.01 µM) of -0.229 GR, a GR value ([11]; 1 µM) of -0.0313 GR and a GR value ([12]; 0.0001 µM) of 0.968 GR. For the same cell line, the GR value ([12]; 0.0003162 µM) was 0.969 GR, the GR value ([12]; 0.001 µM) was 0.862 GR and the GR value ([12]; 0.003162 µM) was 0.951 GR. It also gave a GR value ([12]; 0.01 µM) of 0.707 GR, a GR value ([12]; 0.03162 µM) of 0.489 GR and a GR value ([12]; 0.1 µM) of -0.0333 GR. The GR value ([12]; 0.3162 µM) was -0.573 GR.
